Measurements as given in patent US9724382B2, “Pharmaceutical compositions comprising cyclosporin” (PARI Pharma GmbH, priority 2005, dated 2017).
Read-outs that look alike come from different tables or passages of the source. Values belong to the molecule of their own block, whether it stands above or below them.

Key:
calu-3 cells = conditions: depending on the concentration; cited from earlier work
[1] = system: calu-3 cells (confluent monolayer); conditions: for TEER after 2 h Average / TEER after 24 h Average: human
[2] = system: calu-3 cells (confluent monolayer); test: Trans-epithelial electrical resistance (TEER) of calu-3 monolayer; conditions: for TEER [% of 0 hours]: positive control 0.1%

TEER after 2 h Average ([1]; 0.1 %): 116%
TEER after 2 h Average ([1]; 0.5 %): 120%
TEER after 2 h Average ([1]; 5 %): 36%
TEER after 2 h Average ([1]; 10 %): 14%
TEER after 24 h Average ([1]; 0.1 %): 83%
TEER after 24 h Average ([1]; 0.5 %): 83%
TEER after 24 h Average ([1]; 5 %): 75%
TEER after 24 h Average ([1]; 10 %): 43%
Structure (SMILES): CC(O)CO (stereo not drawn) [Propylene glycol, propylene glycol]
effect on calu-3 cells (calu-3 cells): kills calu-3 cells
effect on the integrity of the calu-3 monolayer [1]: significant and largely non-reversible damage

Structure (SMILES): CCCCCCCCCCCCOS(=O)(=O)[O-].[Na+] [SDS, sodium dodecyl sulphate]
TEER after 2 h Average ([2]; Conc. 0.001 %): 114%
TEER after 24 h Average ([2]; Conc. 0.001 %): 107%
TEER after 2 h Average ([2]; Conc. 0.010 %): 7%
TEER after 24 h Average ([2]; Conc. 0.010 %): 2%
TEER after 2 h Average ([2]; Conc. 0.100 %): 3%
TEER after 24 h Average ([2]; Conc. 0.100 %): 2%
effect on the integrity of the calu-3 monolayer ([2]; conclusion from TEER values): significant and largely non-reversible damage
TEER [% of 0 hours] ([2]; time 0 h): 20%
TEER [% of 0 hours] ([2]; time 1 h): 19%
TEER [% of 0 hours] ([2]; time 2 h): 19%
TEER [% of 0 hours] ([2]; time 24 h): 11%
